In patent EP1044000B1, “COMBINATION THERAPY FOR THE TREATMENT OF AIDS” (MERCK & CO., INC., priority 1997, dated 1999):

Test system: wild-type HIV-1
Test: Cell Spread Assay (described in US 5,646,148)
Type: cell-based
Details: against wild-type HIV-1

Q: For `CC(C)(C)NC(=O)[C@@H]1CN(Cc2cccnc2)CCN1C[C@@H](O)C[C@@H](Cc1ccccc1)C(=O)N[C@H]1c2ccccc2C[C@H]1O` [Indinavir, N-(2(R)-hydroxy-1(S)-indanyl)-2(R)-phenylmethyl-4-(S)-hydroxy-5-(1-(4-(3-pyridylmethyl)-2(S)-N'-(t-butylcarboxamido)-piperazinyl))-pentaneamide], which CIC95 is on record?
A: 50 nM
